Holding throughout (assay type): in vivo, mouse
The subject of test [1] is high fat diet-induced obese mice. The test can be described thus: tissue specific 3H-2-deoxy-D-glucose uptake after oral glucose gavage. To be noted: day 5, vs saline. As for the experimental part:
On the fifth day of EOS or PBS treatment 3H-2-deoxy-D-glucose (2DG; 10 uCi/mouse; PerkinElmer, Waltham, Mass.) was given to 4-hour fasted individually housed mice. Studies were performed in 2 cohorts on 2 different days. 2DG was given by oral gavage in a solution of glucose (2.5 g/kg) and each mouse received the same dose based off the average body weight for their cohort (0.1 mL/10 g body weight). Mice were anesthetized by isoflurane and sacrificed by cervical dislocation 45 minutes following oral gavage. Liver, soleus, quadriceps femoris, and gonadal white adipose tissue were collected, weighed, and dissolved overnight in 1N NaOH (0.5 mL/50 mg tissue) at 55° C. on a shaker plate. 0.5 mL of dissolved tissue was added to 5 mL of scintillation cocktail (Ultima Gold, PerkinElmer, Waltham, Mass.) and disintegrations per minute (DPM) were measured using a LS 6500 Multipurpose Scintillation Counter (Beckman Coulter, Brea, Calif.). DPM/g tissue weight was determined for each tissue and normalized based on a correction factor calculated by the average total DPM/g for all tissues divided by the total DPM/g for all tissues of the individual mouse.

Test [2] shares this test system. The test can be described thus: muscle cGMP content (ELISA). Conditions: day 5. As for the experimental part:
On the fifth day of EOS or PBS treatment, mice were sacrificed and the quadricep and soleus tissues were collected and frozen on dry ice. Prior to analysis, frozen quadricep were powdered using a liquid nitrogen cooled mortar and pestle to obtain homogenous muscle samples. 15-20 mg of quadricep and the entire soleus tissue (6-12 mg) were homogenized in 200 μL of a 5% trichloroacetic acid solution. Following 15 minutes of centrifugation at 3,000×g at 4° C., supernatant was transferred to a fresh tube for analysis of muscle cGMP by enzyme-linked immunosorbent assay (ELISA; ADI-900-164, Enzo Life Sciences, Farmingdale, N.Y.).
For orientation: In an ELISA, binding on a coated surface is turned into a signal by an enzyme label.

For the next test, the system named is diet-induced obese mice. The test can be described thus: body composition by EchoMRI in EOS treated mice. Conditions: 3 g/L in drinking water, day 7 vs day 0. As for the experimental part: Body composition was assessed in diet-induced obese mice on day 0 and 7 days after continuous provision of EOS in the drinking water (3 g/L) using an EchoMRI 900 with A10 insert for mice. Calibration was performed daily and had the water stage set to on.

Results on one compound are retold here after patent US20230128194A1, “METHODS AND COMPOSITIONS TO ALTER HEPATIC GABA RELEASE TO TREAT OBESITY-RELATED CONDITIONS” (ARIZONA BOARD OF REGENTS ON BEHALF OF THE UNIVERSITY OF …, priority 2017, published 2023).

Turning to `NCCOS(=O)(=O)O` [EOS, ethanolamine-O-sulfate], in test [1], the “2DG clearance by gonadal white adipose tissue” value is listed as “did not affect”, the “2DG clearance by the quadriceps femoris” value is “did not affect” and the “increase of 2DG uptake by the soleus” value is recorded as 22%. Moreover, in test [2], the cGMP in quad entry was “no effect” and the “increase of cGMP in the soleus” value worked out at 59%. For the same compound, in the test on diet-induced obese mice, the “decrease of fat mass” value is given as 16.27%, the “decrease of lean mass” value worked out at 6.15% and the “decrease of total body mass” value was found to be 10%.
